This note sets out measurements from patent US8614327B2 (Vertex Pharmaceuticals Incorporated, priority 2004, dated 2013).

Usually EC50 stands for the midpoint of the concentration-response curve.

The assay has as its target T1, ΔF508-CFTR (Homo sapiens, UniProt P13569, DEL508-508).
T1 construct: expressed in transfected cells
Description: Membrane potential optical (FRET/VIPR) assay, identification of potentiator compounds. Type of assay: cell-based. As to conditions: Table 3, assay not given; for % Activity: relative efficacy. In a few lines:
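Double-addition potentiator screen: compound delivered in gluconate-substituted Cl^--free medium, membrane potential followed via CC2-DMPE/DiSBAC2(3) FRET on VIPR. Cells were ΔF508-CFTR-expressing NIH3T3 mouse fibroblasts, held 2 h at 37° C. then 24 h at 27° C. before assay.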

T1 sequence (P13569 with tags, fused parts or gaps DEL508-508): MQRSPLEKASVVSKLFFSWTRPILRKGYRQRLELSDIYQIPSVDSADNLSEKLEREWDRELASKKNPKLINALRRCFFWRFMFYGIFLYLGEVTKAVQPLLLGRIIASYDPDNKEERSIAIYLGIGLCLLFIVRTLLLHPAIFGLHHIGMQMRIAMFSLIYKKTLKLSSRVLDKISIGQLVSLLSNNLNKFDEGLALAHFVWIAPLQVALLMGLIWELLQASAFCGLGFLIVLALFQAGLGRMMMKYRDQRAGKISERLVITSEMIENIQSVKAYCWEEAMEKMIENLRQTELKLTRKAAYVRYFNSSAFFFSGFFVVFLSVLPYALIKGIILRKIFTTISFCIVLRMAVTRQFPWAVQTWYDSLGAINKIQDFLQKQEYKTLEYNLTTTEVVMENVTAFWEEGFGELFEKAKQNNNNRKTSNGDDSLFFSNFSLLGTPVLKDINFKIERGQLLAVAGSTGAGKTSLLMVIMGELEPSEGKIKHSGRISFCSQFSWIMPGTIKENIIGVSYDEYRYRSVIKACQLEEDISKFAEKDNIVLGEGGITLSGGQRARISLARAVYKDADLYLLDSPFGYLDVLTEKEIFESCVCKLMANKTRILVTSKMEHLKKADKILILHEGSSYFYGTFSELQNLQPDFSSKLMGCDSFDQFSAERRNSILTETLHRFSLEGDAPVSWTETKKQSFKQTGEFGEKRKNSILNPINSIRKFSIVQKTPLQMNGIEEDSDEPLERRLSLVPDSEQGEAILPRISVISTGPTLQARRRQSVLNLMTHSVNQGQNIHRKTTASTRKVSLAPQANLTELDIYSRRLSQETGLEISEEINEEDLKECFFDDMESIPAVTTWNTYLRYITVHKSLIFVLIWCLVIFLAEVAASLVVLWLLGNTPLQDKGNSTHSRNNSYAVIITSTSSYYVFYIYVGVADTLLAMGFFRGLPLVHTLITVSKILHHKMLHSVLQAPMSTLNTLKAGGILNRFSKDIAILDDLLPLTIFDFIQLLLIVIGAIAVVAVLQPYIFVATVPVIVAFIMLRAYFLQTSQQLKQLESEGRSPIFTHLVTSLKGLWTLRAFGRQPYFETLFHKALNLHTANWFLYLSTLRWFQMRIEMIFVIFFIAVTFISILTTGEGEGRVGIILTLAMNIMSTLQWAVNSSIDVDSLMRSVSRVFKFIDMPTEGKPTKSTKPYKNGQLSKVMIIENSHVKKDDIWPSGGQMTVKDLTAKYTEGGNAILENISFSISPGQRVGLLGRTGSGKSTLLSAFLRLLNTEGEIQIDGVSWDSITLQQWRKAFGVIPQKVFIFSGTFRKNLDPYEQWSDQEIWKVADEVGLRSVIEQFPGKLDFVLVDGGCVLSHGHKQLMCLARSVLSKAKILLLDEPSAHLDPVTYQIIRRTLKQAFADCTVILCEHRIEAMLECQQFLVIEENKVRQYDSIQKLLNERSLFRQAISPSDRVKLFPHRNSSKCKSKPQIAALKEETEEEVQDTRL

On to `O=C(Nc1ccccc1-c1ccc2[nH]ccc2c1)c1c[nH]c2ccccc2c1=O` [Compound 118, N-[2-(1H-indol-5-yl)phenyl]-4-oxo-1H-quinoline-3-carboxamide], for which the “% Activity” value is listed as “++ (between 25% to 100%)”. On to `CCOC(=O)NCC(C)(C)c1ccc(NC(=O)c2c[nH]c3ccccc3c2=O)cc1` [Compound 119, [2-methyl-2-[4-[(4-oxo-1H-quinolin-3-yl)carbonylamino]phenyl]-propyl]aminoformic acid ethyl ester], for which the EC50 was below 10 µM and the “% Activity” value is recorded as “++ (between 25% to 100%)”. For `COc1ccc(C)cc1NC(=O)c1c[nH]c2ccccc2c1=O` [Compound 120, N-(2-methoxy-5-methyl-phenyl)-4-oxo-1H-quinoline-3-carboxamide] the same measures were 10 to 25 µM and “++ (between 25% to 100%)”.

Regarding `COc1ccc(NC(=O)c2c[nH]c3ccccc3c2=O)cc1OC` [Compound 122, N-(3,4-dimethoxyphenyl)-4-oxo-1H-quinoline-3-carboxamide], the EC50 is 25 to 60 µM and the “% Activity” value is recorded as “+ (<25%)”.

Turning to `O=C(Nc1ccccc1-c1ccoc1)c1c[nH]c2ccccc2c1=O` [Compound 123, N-[2-(3-furyl)phenyl]-4-oxo-1H-quinoline-3-carboxamide], the “% Activity” value is reported as “++ (between 25% to 100%)”. In the case of `CC(C)(C)c1cc2cc[nH]c2cc1NC(=O)c1c[nH]c2ccc(F)cc2c1=O` [Compound 124, 6-fluoro-4-oxo-N-(5-tert-butyl-1H-indol-6-yl)-1H-quinoline-3-carboxamide], the EC50 is below 10 µM and the “% Activity” value is reported as “+++ (>100%)”. For `CCc1cccc(NC(=O)c2c[nH]c3ccccc3c2=O)n1` [Compound 125, N-(6-ethyl-2-pyridyl)-4-oxo-1H-quinoline-3-carboxamide] the same measures were 10 to 25 µM and “++ (between 25% to 100%)”. For `COCCOCC(C)(C)c1ccc(NC(=O)c2c[nH]c3ccccc3c2=O)cc1O` [Compound 126, N-[3-hydroxy-4-[2-(2-methoxyethoxy)-1,1-dimethyl-ethyl]-phenyl]-4-oxo-1H-quinoline-3-carboxamide] the same measures were below 10 µM and “++ (between 25% to 100%)”. For `CCOC(=O)Nc1cc(NC(=O)c2c[nH]c3ccccc3c2=O)ccc1C(C)(C)C` [Compound 127, [5-[(4-oxo-1H-quinolin-3-yl)carbonylamino]-2-tert-butyl-phenyl]aminoformic acid ethyl ester] the same measures were below 10 µM and “++ (between 25% to 100%)”. Regarding `Cc1ccc2c(c1)c(=O)c(C(=O)Nc1ccccc1-c1ccccc1)cn2C` [Compound 128, 1,6-dimethyl-4-oxo-N-(2-phenylphenyl)-1H-quinoline-3-carboxamide], the EC50 was in the range of 25 to 60 µM and the “% Activity” value was “+ (<25%)”.

With `CCc1ccc(NC(=O)c2c[nH]c3ccccc3c2=O)cc1NC(=O)OC` [Compound 129, [2-ethyl-5-[(4-oxo-1H-quinolin-3-yl)carbonylamino]phenyl]aminoformic acid methyl ester], the EC50 is 10 to 25 µM and the “% Activity” value is listed as “++ (between 25% to 100%)”. For `O=C(Nc1ccc2cc[nH]c2c1)c1cnc2cc(C(F)(F)F)cc(C(F)(F)F)c2c1O` [Compound 130, 4-hydroxy-N-(1H-indol-6-yl)-5,7-bis(trifluoromethyl)quinoline-3-carboxamide] the same measures were below 10 µM and “++ (between 25% to 100%)”. In the case of `Nc1cc(Cl)cc(NC(=O)c2c[nH]c3ccccc3c2=O)c1` [Compound 131, N-(3-amino-5-chloro-phenyl)-4-oxo-1H-quinoline-3-carboxamide], the “% Activity” value is listed as “++ (between 25% to 100%)”. Turning to `CCOc1ccc(NC(C)=O)cc1NC(=O)c1c[nH]c2ccccc2c1=O` [Compound 132, N-(5-acetylamino-2-ethoxy-phenyl)-4-oxo-1H-quinoline-3-carboxamide], the EC50 lay within 25 to 60 µM and the “% Activity” value is given as “+ (<25%)”. For `O=C(Nc1cc(Cl)cc(NS(=O)(=O)CCN2CCCCC2)c1)c1c[nH]c2ccccc2c1=O` [Compound 133, N-[3-chloro-5-[2-(1-piperidyl)ethylsulfonylamino]phenyl]-4-oxo-1H-quinoline-3-carboxamide] the same measures were 10 to 25 µM and “++ (between 25% to 100%)”. For `C[S+]([O-])c1ccc(-c2ccccc2NC(=O)c2c[nH]c3ccccc3c2=O)cc1` (stereo not shown) [Compound 134, N-[2-(4-methylsulfinylphenyl)phenyl]-4-oxo-1H-quinoline-3-carboxamide] the same measures were below 10 µM and “++ (between 25% to 100%)”. For `O=C(Nc1ccccc1-c1ccc2c(c1)OCO2)c1c[nH]c2ccccc2c1=O` [Compound 135, N-(2-benzo[1,3]dioxol-5-ylphenyl)-4-oxo-1H-quinoline-3-carboxamide] the same measures were below 10 µM and “+++ (>100%)”. As to `CC(C)(C)c1cc(NC(=O)c2c[nH]c3ccccc3c2=O)c(O)c(C(C)(C)C)c1` [Compound 136, N-(2-hydroxy-3,5-ditert-butyl-phenyl)-4-oxo-1H-quinoline-3-carboxamide], the EC50 was below 10 µM and the “% Activity” value was “++ (between 25% to 100%)”. For `CN(c1ccc(F)cc1)S(=O)(=O)c1ccc2[nH]cc(C(=O)Nc3cc(O)c(C(C)(C)C)cc3C(C)(C)C)c(=O)c2c1` [Compound 137, 6-[(4-fluorophenyl)-methyl-sulfamoyl]-N-(5-hydroxy-2,4-ditert-butyl-phenyl)-4-oxo-1H-quinoline-3-carboxamide] the same measures were below 10 µM and “++ (between 25% to 100%)”.

On to `O=C(Nc1ccccc1-c1cc(F)cc(F)c1)c1c[nH]c2ccccc2c1=O` [Compound 138, N-[2-(3,5-difluorophenyl)phenyl]-4-oxo-1H-quinoline-3-carboxamide], for which the “% Activity” value is on record as “++ (between 25% to 100%)”. As for `O=C(Nc1ccccc1-c1ccc(Cl)cc1Cl)c1c[nH]c2ccccc2c1=O` [Compound 139, N-[2-(2,4-dichlorophenyl)phenyl]-4-oxo-1H-quinoline-3-carboxamide], the “% Activity” value is listed as “++ (between 25% to 100%)”.

For the compound `O=C(Nc1ccc(C2CCCCC2)cc1)c1c[nH]c2ccccc2c1=O` [Compound 140, N-(4-cyclohexylphenyl)-4-oxo-1H-quinoline-3-carboxamide], the “% Activity” value is “++ (between 25% to 100%)”. In the case of `CCOC(=O)Nc1cc(NC(=O)c2c[nH]c3ccccc3c2=O)ccc1C` [Compound 141, [2-methyl-5-[(4-oxo-1H-quinolin-3-yl)carbonylamino]phenyl]aminoformic acid ethyl ester], the EC50 lay in the range of 10 to 25 µM and the “% Activity” value is listed as “++ (between 25% to 100%)”. For `CCC(C)c1ccccc1NC(=O)c1c[nH]c2ccccc2c1=O` (stereo not shown) [Compound 142, 4-oxo-N-(2-sec-butylphenyl)-1H-quinoline-3-carboxamide] the same measures were below 10 µM and “++ (between 25% to 100%)”. For `CC(C)(C)c1cc(F)c(NC(=O)c2c[nH]c3ccccc3c2=O)cc1O` [Compound 143, N-(2-fluoro-5-hydroxy-4-tert-butyl-phenyl)-4-oxo-1H-quinoline-3-carboxamide] the same measures were below 10 µM and “++ (between 25% to 100%)”. For `O=C(Nc1cccc(O)c1)c1c[nH]c2ccccc2c1=O` [Compound 144, N-(3-hydroxyphenyl)-4-oxo-1H-quinoline-3-carboxamide] the same measures were below 10 µM and “++ (between 25% to 100%)”. In the case of `CCOC(=O)c1cc(NC(=O)c2c[nH]c3ccccc3c2=O)cc2[nH]ccc12` [Compound 145, 6-[(4-oxo-1H-quinolin-3-yl)carbonylamino]-1H-indole-4-carboxylic acid ethyl ester], the “% Activity” value is given as “++ (between 25% to 100%)”. As for `O=C(Nc1cccn2ncnc12)c1c[nH]c2ccccc2c1=O` [Compound 146, 4-oxo-N-(1,7,9-triazabicyclo[4.3.0]nona-2,4,6,8-tetraen-5-yl)-1H-quinoline-3-carboxamide], the EC50 lay within 25 to 60 µM and the “% Activity” value is given as “+ (<25%)”. For `O=C(Nc1cccnc1Oc1ccc(F)cc1)c1c[nH]c2ccccc2c1=O` [Compound 147, N-[2-(4-fluorophenoxy)-3-pyridyl]-4-oxo-1H-quinoline-3-carboxamide] the same measures were below 10 µM and “++ (between 25% to 100%)”.

For `O=C(Nc1cc2[nH]ccc2cc1C(=O)N1CCCCC1)c1c[nH]c2ccccc2c1=O` [Compound 148, 4-oxo-N-[5-(1-piperidylcarbonyl)-1H-indol-6-yl]-1H-quinoline-3-carboxamide], the EC50 was below 10 µM and the “% Activity” value is given as “++ (between 25% to 100%)”. For `CCc1ccc(NC(=O)c2c[nH]c3ccccc3c2=O)cc1NC(C)=O` [Compound 149, N-(3-acetylamino-4-ethyl-phenyl)-4-oxo-1H-quinoline-3-carboxamide] the same measures were 10 to 25 µM and “++ (between 25% to 100%)”. For `O=C(Nc1ccc(C(O)(C(F)(F)F)C(F)(F)F)cc1)c1c[nH]c2ccccc2c1=O` [Compound 150, 4-oxo-N-[4-[2,2,2-trifluoro-1-hydroxy-1-(trifluoromethyl)ethyl]phenyl]-1H-quinoline-3-carboxamide] the same measures were below 10 µM and “++ (between 25% to 100%)”. Turning to `Cc1csc(-c2ccccc2NC(=O)c2c[nH]c3ccccc3c2=O)c1` [Compound 151, N-[2-(4-methyl-2-thienyl)phenyl]-4-oxo-1H-quinoline-3-carboxamide], the EC50 was below 10 µM and the “% Activity” value is reported as “++ (between 25% to 100%)”.

Take `O=C(Nc1ccc2[nH]c(=O)oc2c1)c1c[nH]c2ccccc2c1=O` [Compound 152, 4-oxo-N-(2-oxo-3H-benzooxazol-6-yl)-1H-quinoline-3-carboxamide]: the EC50 was 25 to 60 µM and the “% Activity” value is recorded as “+ (<25%)”.
